Measured values: patent publication US6703413B2 (Rhode Island Hospital, priority 1999, dated 2004)

Legend:
NIH-3T3 cells = assay: Phosphotidylserine externalization, Annexin-V FITC binding; assay type: cell-based, murine; details: NIH-3T3, 24 h exposure, non-significant
Experimental: (§1) Three×10^5 cells were seeded in plastic tissue culture flasks. […] Control cultures received an appropriate volume of Kollidine-17P. After an additional 24 h, cells were harvested and phosphotidylserine externalization determined by assessing Annexin-V FITC binding using cytofluorometric techniques. Each bar represents the mean±SE of four determinations. ** p≦0.01, *** p0.001
(§2) Cell membrane phosphotidylserine externalization, as a reflection of the potential induction of apoptosis, was assessed by flow cytometry methods using the ApoAlert® Annexin-V/FITC assay kit. Briefly, 1×10^6 cells were incubated for 24 h in tissue culture medium containing serum. […] Control cultures received 5% Kollidon 17 PF alone. Twenty-four hours later, all cells were harvested by trypsinization. The harvested cells were resuspended in 200 μl of binding buffer and then incubated for 5-15 min in a solution containing 1 μg/ml Annexin-V FITC at room temperature in the dark. The cells were then analyzed to quantitate Annexin-V binding by cytofluorometric techniques that utilized FACScan using the ModFit LT program with statistical analysis as described above.

[1] = system: human Burkitt's lymphoma cell line, Daudi cell line; assay: Killing of non-anchorage-dependent tumor cells in suspension culture; assay type: cell-based; details: 10-20 μM for 72 hours
Experimental: Two different non-anchorage-dependent tumor cell lines (a human Burkitt's lymphoma cell line, and a Daudi cell line), and precancerous cell line (a human myelodysplastic cell line) were grown in suspension culture.

[2] = system: activated human T-cell cultures; assay: Cytotoxic and apoptotic activity in normal primary cells; assay type: cell-based
From the text: (§3) This observation was confirmed using normal (non-tumor) primary cells derived from animals, which are known to be free of tumors.

[3] = system: normal murine bone marrow cultures; assay: as above; assay type: cell-based
From the text: as §3

[4] = system: PA-1 human ovarian tumor cells; assay: Phosphotidylserine externalization, Annexin-V FITC binding; assay type: cell-based; details: PA-1, 24 h exposure
Experimental: as §1, §2

[5] = system: SKOV-3 human ovarian tumor cells; assay: as above; assay type: cell-based; details: SKOV-3, 24 h exposure
Experimental: as §1, §2

[6] = system: SKOV-3 human ovarian tumor xenografts; assay: Therapeutic effectiveness against i.p. human ovarian tumor xenografts; assay type: in vivo, female nude mice
From the text: Fourteen days following the final Taurolidine injection, mice in all groups were sacrificed and the peritoneal cavity examined for the presence of tumors. Each experimental was repeated three times and the pooled number of animals in each group ranged from 15-21.
Fourteen days following the final Taurolidine injection, mice in all groups were sacrificed, i.p. ovarian tumor xenografts removed and tumor weighed. Each experiment was repeated three times and the pooled number of animals in each group ranged from 15-21. Each bar represents the mean (±SE) tumor weight of 15-21 animals. ***p≦0.001, **** p≦0.0001.
To evaluate therapeutic effectiveness, mice received a single intraperitoneal injection of 5×10^6 SKOV-3 cells in a volume of 0.5 ml. Immediately thereafter, mice were randomly divided into treatment groups of 7 animals. […] Control animals received 1 ml injections of 5% Kollidon 17 PF alone. Animals were examined daily and body weight recorded twice weekly. […] The mean tumor weight for each treatment group was calculated and statistical analysis of differences in the mean tumor weight between treatment groups employed the Student's t-test. p-values of ≦0.05 were considered significant.
Studies next evaluated the antineoplastic activity of this regimen in mice bearing i.p. human ovarian tumor xenografts derived from the SKOV-3 cell line. Mice were injected i.p. with 5×10^6 SKOV-3 cells. […] Fourteen days following the termination of Taurolidine therapy, mice were sacrificed and all i.p. tumors removed and weighed.

[7] = system: PA-1 human ovarian tumor cells; assay: Cell cycle distribution and sub-G0/G1 DNA debris, flow cytometry; assay type: cell-based; details: for Cell Cycle Distribution, G0G1 / Cell Cycle Distribution, G2/M / Cell Cycle Distribution, S: PA1, 48 h
Experimental: (§4) Three×10^5 cells were seeded in plastic tissue culture flasks. […] Control cultures received an appropriate volume of Kollidine-17P. […] The percentage of DNA debris in the sub-G0/G1 region was assessed using cytofluorometric techniques. Each bar represents the mean (±SE) of three determinations. ** p≦0.01, *** p≦0.001, **** p≦0.0001
(§5) For flow cytometry studies, 1×10^6 PA-1, SKOV-3, or NIH-3T3 cells were incubated for 24 h in appropriate media containing serum. […] Control cultures for each cell line were incubated in media containing 40 μl of 5% Kollidon 17 PF alone. Forty-eight hours later, all cells were harvested by trypsinization and prepared for cytofluorometric analysis by standard methods. For example, harvested cells were resuspended in ice cold phosphate-buffered saline at a final cell density of 2×10^6 cells/ml. The cells then were stained for 30 min at room temperature in the dark with a solution of 0.05 mg/ml propidium iodide, 0.6% Igepal, and 1% sodium citrate. Flow cytometry was performed by FACScan (Becton Dickinson, Plymouth, England) using the ModFit LT program (Becton Dickinson). Statistical analysis was performed with the Kruskal Wallis non-parametric ANOVA test followed by Dunn's multiple comparisons test using Instat.
(§6) Three×10^5 cells were seeded in plastic tissue culture flasks. […] Control cultures received an appropriate volume of Kollidine-17P. After an additional 48 h, cells were harvested, stained with propidium iodide, and cell cycle distribution assessed using cytofluorometric techniques. Each value represents the percentage of cells in the noted cell cycle phases and is the mean±SEM of three determinations.

[8] = system: NIH-3T3 murine fibroblasts; assay: as above; assay type: cell-based; details: NIH-3T3, 48 h
Experimental: as §4, §5, §6

[9] = system: SKOV-3 human ovarian tumor cells; assay: as above; assay type: cell-based; details: for Cell Cycle Distribution, G0G1 / Cell Cycle Distribution, G2/M / Cell Cycle Distribution, S: SKOV3, 48 h
Experimental: as §4, §5, §6

[10] = therapy delayed for up to 3 d after tumor cell injection
[11] = therapy initiated on the day of tumor cell injection

SMILES: O=S1(=O)CCN(CN2CCS(=O)(=O)NC2)CN1 [Taurolidine, Bis-(1,1-dioxoperhydro-1,2,4-thiadiazinyl-4)methane]
- increase in Annexin-V binding (NIH-3T3 cells): ~5%
- cells died [1]: 50%
- cytotoxicity [2]: not cytotoxic in the high μM range
- concentrations required to inhibit cell proliferation ([3]; normal murine bone marrow): mM range
- cytotoxicity ([3]; normal murine bone marrow cultures): not cytotoxic in the high μM range
- increase in Annexin-V binding [4]: 4 fold
- increase in Annexin-V binding [5]: 3 fold
- ascites formation ([6]; 20 mg/mouse/injection x 3 d i.p. from day of tumor cell injection): no evidence of ascites formation
- Mean tumor weight ([6]; 20 mg/mouse/injection x 3 d i.p. from day of tumor cell injection, nineteen days after injection): less than 50 mgs
- mean tumor size versus controls [6, 10]: significantly smaller than in controls
- mice tumor free upon sacrifice [6, 10]: approximately 10%
- tumor growth ([6]; therapy initiated 5 d after tumor cell injection (established i.p. tumors)): significantly inhibiting tumor growth
- mean tumor size in treated mice with tumors, smaller than control [6, 11]: approximately 40 fold
- treated mice with no evidence of disease upon sacrifice [6, 11]: ~80%
- Cell Cycle Distribution, G0G1 ([7]; 25 μM): 28.4 ± 0.5%
- Cell Cycle Distribution, G2/M ([7]; 25 μM): 24.7 ± 0.9%
- Cell Cycle Distribution, S ([7]; 25 μM): 46.8 ± 0.6%
- Cell Cycle Distribution, G0G1 ([7]; 50 μM): 23.7 ± 2.2%
- Cell Cycle Distribution, G0G1 ([7]; 100 μM): 28.4 ± 5.6%
- Cell Cycle Distribution, G2/M ([7]; 100 μM): 27.2 ± 17.9%
- Cell Cycle Distribution, S ([7]; 100 μM): 44.5 ± 23.5%
- DNA debris in the sub-G0/G1 region ([7]; PA-1, 48 h, 25-100 μM): appearance of DNA debris in the sub-G0G1 region
- Cell Cycle Distribution, G0G1 ([8]; 25 μM): 42.5 ± 9.6%
- Cell Cycle Distribution, G2/M ([8]; 25 μM): 13.0 ± 4.0%
- Cell Cycle Distribution, S ([8]; 25 μM): 44.9 ± 5.6%
- Cell Cycle Distribution, G0G1 ([8]; 50 μM): 33.9 ± 10.2%
- Cell Cycle Distribution, G2/M ([8]; 50 μM): 21.8 ± 4.6%
- Cell Cycle Distribution, S ([8]; 50 μM): 44.3 ± 5.9%
- Cell Cycle Distribution, G0G1 ([8]; 100 μM): 25.8 ± 1.7%
- Cell Cycle Distribution, G2/M ([8]; 100 μM): 11.0 ± 11.0%
- Cell Cycle Distribution, S ([8]; 100 μM): 63.2 ± 9.8%
- DNA debris in the sub-G0/G1 region ([8]; 25-100 μM): did not significantly affect the appearance of DNA debris
- Cell Cycle Distribution, G0G1 ([9]; 25 μM): 45.8 ± 2.7%
- Cell Cycle Distribution, G2/M ([9]; 25 μM): 12.3 ± 3.1%
- Cell Cycle Distribution, S ([9]; 25 μM): 41.9 ± 4.2%
- Cell Cycle Distribution, G0G1 ([9]; 50 μM): 30.7 ± 9.4%
- Cell Cycle Distribution, G2/M ([9]; 50 μM): 30.3 ± 10.5%
- Cell Cycle Distribution, S ([9]; 50 μM): 45.5 ± 12.4%
- Cell Cycle Distribution, G0G1 ([9]; 100 μM): 19.9 ± 6.1%
- Cell Cycle Distribution, G2/M ([9]; 100 μM): 25.9 ± 7.8%
- Cell Cycle Distribution, S ([9]; 100 μM): 54.2 ± 8.6%
- DNA debris in the sub-G0/G1 region ([9]; SKOV-3, 48 h, 25-100 μM): appearance of DNA debris in the sub-G0G1 region
